Drawing on ChEMBL document CHEMBL3621163, “Phenothiazine-based CaaX competitive inhibitors of human farnesyltransferase bearing a cysteine, methionine, serine or valine moiety as a new family of antitumoral compounds” (Bioorg Med Chem Lett, 2015), this text covers inhibition and IC50 for 20 molecules.

What all share (type): protein-complex assay
Assay [1] has as its target T1, Protein farnesyltransferase (Homo sapiens, UniProt P49354+P49356). Briefly: Inhibition of recombinant human FTase using FPP/dansyl-GCVLS as substrate at 100 uM measured for 15 mins by fluorimetric analysis relative to control.
Assay [2] addresses T1, Protein farnesyltransferase. The assay can be described thus: Inhibition of recombinant human FTase using FPP/dansyl-GCVLS as substrate measured for 15 mins by fluorimetric analysis.
The target is the same in assay [3]. The assay can be described thus: Inhibition of human FTase.

By inhibition is commonly meant the percentage by which the read-out fell short of the control. As usually defined, the IC50 is the point on the concentration scale where inhibition reaches its midpoint. For the molecule `O=C(CCN1c2ccccc2Sc2ccccc21)N[C@@H](CS)C(=O)O`, the inhibition in assay [1] was 92%. Further, in assay [2], the IC50 turned out to be 4.7 µM. `CC(C)[C@H](NC(=O)CCN1c2ccccc2Sc2ccccc21)C(=O)O`: in assay [1], the inhibition was 76%. The concentration for half-maximal inhibition (IC50) in assay [2] stood at 44.7 µM. For `COC(=O)[C@H](CCSC)NC(=O)CCN1c2ccccc2Sc2ccc(Cl)cc21`, the inhibition in assay [1] was found to be 0%. Still for that read-out and setting: as for `CCOC(=O)[C@H](CS)NC(=O)CCN1c2ccccc2Sc2ccccc21`, the figure is 10%.

On to `COC(=O)[C@H](CO)NC(=O)CCN1c2ccccc2Sc2ccccc21`, for which the inhibition in assay [1] was 63%. On to `O=C(CCn1c2ccccc2c2ccccc21)N[C@@H](CS)C(=O)O`, for which, in assay [1], the inhibition amounted to 67%. The IC50 in assay [2] amounted to 65.4 µM.

For the molecule `CCOC(=O)[C@H](CSSC[C@H](NC(=O)CCN1c2ccccc2Sc2ccccc21)C(=O)OCC)NC(=O)CCN1c2ccccc2Sc2ccccc21`, the inhibition in assay [1] amounted to 0%. Regarding `COC(=O)[C@@H](NC(=O)CCn1c2ccccc2c2ccccc21)C(C)C`, the inhibition in assay [1] is 12%.

Take `CCOC(=O)[C@H](CS)NC(=O)CCn1c2ccccc2c2ccccc21`: the inhibition in assay [1] is 15%. On to `O=C(CCN1c2ccccc2Sc2ccccc21)N[C@@H](CO)C(=O)O`, for which the inhibition in assay [1] worked out at 94%. Also, the IC50 in assay [2] stood at 12 µM.

Regarding `COC(=O)[C@H](CO)NC(=O)CCn1c2ccccc2c2ccccc21`, in assay [1], the inhibition is 23%.

For `COC(=O)[C@H](CCSC)NC(=O)CCN1c2ccccc2Sc2ccccc21`, the inhibition in assay [1] worked out at 5%.

Turning to `CSCC[C@H](NC(=O)CCN1c2ccccc2Sc2ccc(Cl)cc21)C(=O)O`, the inhibition in assay [1] is 96%. Besides, the concentration for half-maximal inhibition (IC50) in assay [2] was 18.9 µM. In the case of `COC(=O)[C@H](CCSC)NC(=O)CCn1c2ccccc2c2ccccc21`, in assay [1], the inhibition was determined as 51%.

As to `CSCC[C@H](NC(=O)CCn1c2ccccc2c2ccccc21)C(=O)O`, the inhibition in assay [1] was 73%. For the same molecule, in assay [2], the IC50 turned out to be 40.2 µM. `CC(C)[C@H](NC(=O)CCn1c2ccccc2c2ccccc21)C(=O)O`: the inhibition in assay [1] came out at 22%. On the same count and under the same terms, as for `COC(=O)[C@@H](NC(=O)CCN1c2ccccc2Sc2ccccc21)C(C)C`, the figure is 52%.

On to `O=C(CCn1c2ccccc2c2ccccc21)OCCS`, for which half-maximal inhibition in assay [3] (IC50) was put at 35 µM. As for `CSCC[C@H](NC(=O)CCN1c2ccccc2Sc2ccccc21)C(=O)O`, in assay [1], the inhibition stood at 92%. Also, the IC50 in assay [2] was 11.7 µM. On to `O=C(CCn1c2ccccc2c2ccccc21)N[C@@H](CO)C(=O)O`, for which, in assay [1], the inhibition is 33%.
